Earlier results as cited in US20020146829A1, “Neutral and anionic colloidal particles for gene delivery” (Aventis Pharmaceuticals Products Inc., priority 2000, published 2002).

Target: T1, folate receptor on M109 cells (Mus musculus, UniProt P35846)
T1 construct: endogenous in cells; host or cells: M109 cells
T1 sequence (P35846 25-232): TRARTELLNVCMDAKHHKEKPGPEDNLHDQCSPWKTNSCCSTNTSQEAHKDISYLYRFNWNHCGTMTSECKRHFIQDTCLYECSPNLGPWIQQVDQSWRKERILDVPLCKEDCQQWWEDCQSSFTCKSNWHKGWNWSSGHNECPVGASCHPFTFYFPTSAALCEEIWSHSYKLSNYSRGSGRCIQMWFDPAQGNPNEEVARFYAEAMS

In the case of distearyl-PEG400-Folate [RPR258018], the “binding to folate receptor” value is given as “specifically bind”.
